Test results: patent US20160089373A1, “CARDIO- AND RENOPROTECTIVE ANTIDIABETIC THERAPY” (Boehringer Ingelheim International GmbH, priority 2013, published 2016)
Like-named read-outs stand apart in the source and are kept apart here.

Experiments:
male diabetic db/db mice = assay: Diabetic nephropathy study in db/db mice (serum/urine parameters, renal histology); format: in vivo; conditions: for glomerular mesangial matrix expansion (histology) / tubulointerstitial fibrosis (histology): compared with diabetic vehicle; for effects on fasted or post-prandial glucose levels: db/db mice, 12 weeks treatment, linagliptin 3 mg/kg/day, enalapril 20 mg/kg/day
Procedure: (§1) Diabetic nephropathy is the main cause of end-stage renal disease. […] Heterozygous db/+ mice treated with vehicle were used as controls (n=8). Levels of glucose, triglycerides, insulin, cystatin C and creatinine were analysed in serum and urine samples at baseline and monthly thereafter. Body weight, urinary albumin excretion and OGTT were monitored periodically.
(§2) Renal histology (glomerulosclerosis, tubulointerstitial fibrosis) and expression of the sialoglycoprotein podocalyxin (a marker of podocyte integrity in the glomeruli, marker for glomerular damage), glucagon-like peptide 1 receptor (GLP-1R), alpha-smooth muscle actin and type I collagen were evaluated at the end of the study.

podocalyxin = assay: Podocalyxin immunohistochemistry of kidney sections (podocyte integrity) in db/db mice; format: in vivo; conditions: 12 weeks, semi-quantitative score 0-3, p<0.05 vs diabetic mice
Procedure: The expression of podocalyxin is analysed by immunohistochemistry using a podocalyxin specific antibody. Kidney sections from male diabetic db/db mice (10 weeks old at start and treated for 3 months) in the following groups are analysed:
All of the evaluations of the glomerular staining intensities are done semi-quantitatively by two different experts of kidney pathology blinded for the slides.
The predefined scoring gradient is 0, 1, 2, and 3.0 means no expression, whereas 3 is given when expression is highest. Group means are compared with a non-parametric test. P values less than 0.05 are considered significant.
as §1, §2

[1] = test system: glucagon-like peptide 1 receptor (GLP-1R); assay: GLP-1R immunohistochemical staining of kidney sections in db/db mice; format: in vivo; conditions: P<0.05 vs vehicle-treated db/db mice
Procedure: as §1, §2

[2] = Pooled analysis of four 24-week placebo-controlled trials: albuminuria in T2D patients with early diabetic nephropathy on stable ACE/ARB (set 1); format: in vivo, human; conditions: 5 mg qd, 24 weeks
Excerpt: Despite optimal therapy, people with type 2 diabetes (T2D) remain at high risk for kidney damage, manifest as abuminuria, and many develop progressive renal failure. Further, despite optimal therapy with inhibitors of the renin-angiotensin-aldosterone system (RAAS), patients with type 2 diabetes mellitus (T2DM) remain at an increased risk of progressive renal failure and cardiovascular disease, for which abuminuria has emerged as a predictive biomarker. […] Participants were included in this analysis if they had: i) 30≦UACR≦3000 mg/g creatinine; ii) stable treatment with ACE/ARBs ≧4 weeks prior and during the trial; and iii) eGFR >30 ml/min/1.73 m^2. The endpoint was the percentage change in geometric mean UACR. […] After 24 weeks, placebo-corrected changes in A1C and FPG were −0.71% and −26 mg/dl, respectively (both p<0.0001). […] This protective effect may be independent of race.
(§3) The endpoint in both sets was the percentage change in geometric mean UACR after 24 weeks.

[3] = Pooled analysis of seven placebo-controlled trials: albuminuria in elderly T2D patients with diabetic nephropathy (set 2); format: in vivo, human; conditions: 5 mg q.d., 24 weeks, set 2, aged ≧65 years
Excerpt: as §3

[4] = Meta-analysis of renal safety/outcomes in 13 phase 3 placebo-controlled trials, 5466 T2D patients
Excerpt: The aim of this study was to evaluate renal safety/outcomes with linagliptin in phase 3, randomized, double-blind, placebo-controlled trials (≧12 wks).

[5] = for feτ, s: steady state (Day 12), gMean
[6] = linagliptin compared with enalapril, p<0.05

feτ, s ([5]; 1 mg once daily oral)	feτ, s ([5]; 2.5 mg once daily oral)	feτ, s ([5]; 5 mg once daily oral)	feτ, s ([5]; 10 mg once daily oral)	excreted via the kidney ([5]; therapeutic oral dose levels, of the administered oral dose)	Compound	glomerular mesangial matrix expansion (histology) (male diabetic db/db mice; p<0.05)	tubulointerstitial fibrosis (histology) (male diabetic db/db mice; p<0.05)	effects on fasted or post-prandial glucose levels (male diabetic db/db mice)	podocalyxin expression (glomerular staining score) (podocalyxin)	tubulointerstitial fibrosis (male diabetic db/db mice; [6])	urinary albumin excretion rates (male diabetic db/db mice; [6])	expression of GLP-1R in the glomeruli [1]	UACR between group difference vs placebo ([2]; set 1)	lowering of adjusted UACR (percentage change in geometric mean) ([2]; set 1, on stable ACE/ARB)	UACR reduction versus placebo (trend) [3]	patients with composite renal endpoint events ([4]; linagliptin 5 mg qd, n=3505)	patients with composite renal endpoint events (number) ([4]; linagliptin 5 mg qd, n=3505)	HR for the composite endpoint vs placebo ([4]; patients <65 yrs)	HR for the composite endpoint vs placebo ([4]; patients >65 yrs)	route of excretion ([5]; human, in vivo)
–	–	–	–	–	CCOC(=O)[C@H](CCc1ccccc1)N[C@@H](C)C(=O)N1CCC[C@H]1C(=O)O [enalapril, reference compound]	reduced almost to control levels	reduced almost to control levels	limited effects	2.4±0.2	–	–	–	–	–	–	–	–	–	–	–
3.34%	3.06%	6.27%	3.22%	< 7%	CC#CCn1c(N2CCC[C@@H](N)C2)nc2c1c(=O)n(Cc1nc(C)c3ccccc3n1)c(=O)n2C [linagliptin]	reduced almost to control levels	reduced almost to control levels	limited effects	2.3±0.2	significantly decreased	significantly decreased	1.90±0.04	−29%	33%	−25%	12.8%	448	0.77	1.04	primarily excreted unchanged via the bile
